Measured values published in patent US7973219B2, “Method for producing transgenic plants resistant to weed control compounds which disrupt the porphyrin pathways of plants” (Sumitomo Chemical Company, Limited, priority 1998, dated 2011).

Legend:
[1] = tested on: E. coli BT3/pACYCSP+pRASSL strain; assay: Growth of E. coli BT3/pACYCSP+pRASSL with herbicidal compound; format: cell-based, Escherichia coli; details: 1 ppm, 18 hours culture, Table 15
Source text: According to the description of Gibson, L. C. D. et al., Proc. Natl. Acad. Sci. USA, 92; p 1941 (1995), the DNA fragment containing bchH gene prepared in Example 1 was digested with the restriction enzymes NdeI and BglII. The resultant DNA fragment was inserted between NdeI restriction site and BamHI restriction site of expression vector pET11a (manufactured by Stratagene) to obtain plasmid pETBCH (FIG. 1). This plasmid pETBCH was introduced into E. coli BL21(DE3) strain competent cells (manufactured by Stratagene) according to the manual attached to the competent cells to obtain E. coli BL21(DE3)/pETBCH strain. […] When the absorbance at 600 nm of the liquid culture medium became about 0.6, isopropyl β-D-thiogalactopyranoside (IPTG) was added to the liquid culture medium so that the final concentration was 0.4 mM, and the culture was continued for about additional 20 hours. […]
These E. coli strains were inoculated into YPT medium containing 1 ppm of the PPO inhibitory-type herbicidal compound represented by Structure 8, 100 μg/ml ampicillin, 15 μg/ml chloramphenicol, 10 μg/ml kanamycin, 10 μg/ml hemin and 50 μg/ml aminolevulinic acid, cultured under dark conditions or light conditions according to the same manner as in Example 2. Then, 18 hours after initiation of culture, the absorbance of liquid culture medium was measured at 600 nm. […]

[2] = tested on: tobacco into which the gene encoding the variant Chlamydomonas reinhardtii PPO was introduced; assay: Leaf piece chlorophyll test, tobacco with gene encoding variant Chlamydomonas reinhardtii PPO; format: in vivo; details: Table 10; for Resistant level to test compound: same manner as Example 6 (0.3 ppm), treated vs untreated leaf pieces; for Total chlorophyll content treated-leaf: same manner as Example 6 (0.3 ppm, 7 days in light)
Source text: The tobacco leaves into which bchH gene was introduced and control recombinant tobacco leaves obtained in Example 5 were collected and each leaf was divided into the right and left equivalent pieces along the main vein, respectively. To one piece was applied an aqueous solution containing 0.3 ppm PPO inhibitory-type herbicidal compound of Structure 8, while, to the other piece was not applied the compound. These leaf pieces were placed on MS medium containing 0.8% agar and allowed to stand at room temperature for 7 days in light place. Then, each leaf piece was ground with pestle and mortar in 5 ml of 80% aqueous acetone solution to extract chlorophyll. The extract liquid was diluted with 80% aqueous acetone solution and the absorbance was measured at 750 nm, 663 nm and 645 nm to calculate total chlorophyll content according to the method described by Macknney G., J. Biol. Chem. (1941) 140, p 315. The results obtained from 4 clones of tobacco into which bchH gene was introduced (BCH1 to 4) and control recombinant tobacco is shown in Table 4. In the table, the resistant level to the herbicidal compound was represented by percentages of the total chlorophyll content of leaf pieces treated with herbicidal compound to that of untreated leaf pieces.
Leaf pieces of tobacco cultured sterilely were infected with the Agrobacterium strain and, according to the same manner as in Example 5, tobacco into which the gene encoding the variant Chlamydomonas reinhardtii PPO was introduced was obtained.
The level of resistance to the PPO-inhibitory type herbicidal compound represented by Structure 8 was confirmed quantitatively by testing tobacco into which the gene encoding the variant Chlamydomonas reinhardtii PPO prepared in Example 18 was introduced according to the same manner as in Example 6. The results obtained from 4 clones (CRP 1-4) of tobacco into which the gene encoding the variant Chlamydomonas reinhardtii PPO was introduced and control recombinant tobacco is shown in Table 10. In the table, the resistant levels to the herbicidal compound are represented by percentages of the total chlorophyll content of leaf pieces treated with the herbicidal compound to that of untreated leaf pieces.

## C#CCOc1cc(N2C(=O)C3=C(CCCC3)C2=O)c(F)cc1Cl [Structure 8]
[1]; in the dark
  Relative absorbance: 1.0
[1]; in the light
  Relative absorbance: 0.59
[2]; clone CRP-1
  Resistant level to test compound: 121%
  Total chlorophyll content treated-leaf: 1.54 mg/g-fresh weight
[2]; clone CRP-2
  Resistant level to test compound: 111%
  Total chlorophyll content treated-leaf: 1.67 mg/g-fresh weight
[2]; clone CRP-3
  Resistant level to test compound: 101%
  Total chlorophyll content treated-leaf: 1.11 mg/g-fresh weight
[2]; clone CRP-4
  Resistant level to test compound: 99.4%
